Source: ChEMBL document CHEMBL5385929, “Tabersonine Enhances Olaparib Sensitivity through FHL1-Mediated Epithelial-Mesenchymal Transition in an Ovarian Tumor” (J Nat Prod, 2024)
Active and inactive are the calls of the source. The calls are words filed in the database; no cut-off is given here.

Tests used:
Type in all cases: functional, organism-based
A2780 [1] = experiment: Potentiation of olaparib-induced antitumor activity against human A2780 cells xenografted in BALB/c mouse assessed as decrease in tumor weight at 15 mg/kg, ip co-administered with olaparib for 2 weeks
Mus musculus = experiment: Potentiation of olaparib sensitivity in BALB/c mouse xenografted with shNC RNA-transfected human A2780 cells assessed as downregulation of N-cadherin protein expression in tumor at 15 mg/kg, ip co-administered with olaparib for 2 weeks by western blot analysis
A2780 [2] = experiment: Potentiation of olaparib-induced antitumor activity against shFHL1-1 RNA-transfected human A2780 cells xenografted in BALB/c mouse assessed as decrease in lung metastatic nodules at 15 mg/kg, ip co-administered with olaparib every other day from day 6 of tumor cell inoculation and measured on day 30 post-tumor cell inoculation by H and E staining based bright field microscopic analysis; details: time 24.0 day

## CC[C@]12C=CCN3CC[C@]4(C(=C(C(=O)OC)C1)Nc1ccccc14)[C@@H]32 [TABERSONINE]
A2780 [1]
  Activity: Active
Mus musculus
  Activity: Active
A2780 [2]
  Activity: inactive
